ChEMBL document CHEMBL3045330, “Antimicrobial and anticancer effects of some 2-(substitutedsulfanyl)-N-(5-methyl-isoxazol-3-yl)acetamide derivatives” (Med Chem Res, 2013)
≈ marks a conversion by molar mass, not a printed value.

What was measured:
Candida albicans = experiment: Antifungal activity against Candida albicans assessed as growth inhibition by CLSI broth microdilution method; format: functional
Pseudomonas aeruginosa = experiment: Antibacterial activity against Pseudomonas aeruginosa ATCC 254992 assessed as growth inhibition by CLSI broth microdilution method; format: functional
C6 [1] = experiment: Cytotoxicity against Rattus norvegicus (rat) C6 cells assessed as cell viability after 24 hr by MTT assay; format: functional, cell-based; conditions: C6, 24 h
HT-29 [2] = experiment: Cytotoxicity against Homo sapiens (human) HT-29 cells assessed as cell viability after 24 hr by MTT assay; format: functional, cell-based; conditions: HT-29, 24 h
Escherichia coli = experiment: Antibacterial activity against Escherichia coli ATCC 25922 assessed as growth inhibition by CLSI broth microdilution method; format: functional
Enterococcus faecalis = experiment: Antibacterial activity against Enterococcus faecalis ATCC 29212 assessed as growth inhibition by CLSI broth microdilution method; format: functional
Staphylococcus aureus = experiment: Antibacterial activity against Staphylococcus aureus NRRL B-767 assessed as growth inhibition by CLSI broth microdilution method; format: functional
HT-29 [3] = experiment: Inhibition of nuclear DNA synthesis in Homo sapiens (human) HT-29 cells assessed as decrease in incorporation of bromo deoxyuridine during S phase of cell cycle at 3.2 uM after 48 hr by colorimetric method relative to untreated control; format: cell-based
C6 [4] = experiment: Inhibition of nuclear DNA synthesis in Rattus norvegicus (rat) C6 cells assessed as decrease in incorporation of bromo deoxyuridine during S phase of cell cycle at 0.8 to 3.2 uM by colorimetric method; format: cell-based; conditions: TDE = time-dependent effect
HT-29 [5] = experiment: Inhibition of nuclear DNA synthesis in Homo sapiens (human) HT-29 cells assessed as decrease in incorporation of bromo deoxyuridine during S phase of cell cycle at 0.8 to 3.2 uM by colorimetric method; format: cell-based; conditions: TDE = time-dependent effect
C6 [6] = experiment: Inhibition of nuclear DNA synthesis in Rattus norvegicus (rat) C6 cells assessed as decrease in incorporation of bromo deoxyuridine during S phase of cell cycle after 24 to 48 hr by colorimetric method; format: cell-based
HT-29 [7] = experiment: Inhibition of nuclear DNA synthesis in Homo sapiens (human) HT-29 cells assessed as decrease in incorporation of bromo deoxyuridine during S phase of cell cycle after 24 to 48 hr by colorimetric method; format: cell-based
C6 [8] = experiment: Inhibition of nuclear DNA synthesis in Rattus norvegicus (rat) C6 cells assessed as decrease in incorporation of bromo deoxyuridine during S phase of cell cycle at 3.2 uM after 24 hr by colorimetric method relative to untreated control; format: cell-based
C6 [9] = experiment: Inhibition of nuclear DNA synthesis in Rattus norvegicus (rat) C6 cells assessed as decrease in incorporation of bromo deoxyuridine during S phase of cell cycle at 3.2 uM after 48 hr by colorimetric method relative to untreated control; format: cell-based

Compound	MIC (Candida albicans) [µg/mL]	MIC (Pseudomonas aeruginosa) [µg/mL]	IC50 (C6 [1]) [nM]	IC50 (HT-29 [2]) [nM]	MIC (Escherichia coli) [µg/mL]	MIC (Enterococcus faecalis) [µg/mL]	MIC (Staphylococcus aureus) [µg/mL]	inhibition (HT-29 [3]) [%]	inhibition (C6 [4])	inhibition (HT-29 [5])	inhibition (C6 [6])	inhibition (HT-29 [7])	inhibition (C6 [8]) [%]	inhibition (C6 [9]) [%]
Cc1cc(NC(=O)CSc2nnnn2-c2ccccc2)no1	100 (≈ 316 µM)	100 (≈ 316 µM)	640	740	400 (≈ 1260 µM)	400 (≈ 1260 µM)	200 (≈ 632 µM)	–	–	–	–	–	–	–
Cc1cc(NC(=O)CSc2nc3ccccc3[nH]2)no1	200 (≈ 694 µM)	200 (≈ 694 µM)	100	90	400 (≈ 1390 µM)	400 (≈ 1390 µM)	200 (≈ 694 µM)	80	tde	tde	Dose-dependent effect	Dose-dependent effect	> 50	70
Cc1cc(NC(=O)CSc2nc[nH]n2)no1	100 (≈ 418 µM)	100 (≈ 418 µM)	3190	1130	400 (≈ 1670 µM)	400 (≈ 1670 µM)	200 (≈ 836 µM)	–	–	–	–	–	–	–
CC(=O)N1CCN(c2ccc(OCC3COC(Cn4ccnc4)(c4ccc(Cl)cc4Cl)O3)cc2)CC1 (stereo not given) [KETOCONAZOLE]	100 (≈ 188 µM)	–	–	–	–	–	–	–	–	–	–	–	–	–
Cc1cc(NC(=O)CSc2nncn2C)no1	100 (≈ 395 µM)	100 (≈ 395 µM)	1470	1020	400 (≈ 1580 µM)	400 (≈ 1580 µM)	200 (≈ 790 µM)	–	–	–	–	–	–	–
Cc1cc(NC(=O)CSc2nccn2C)no1	100 (≈ 396 µM)	200 (≈ 793 µM)	1410	1130	400 (≈ 1590 µM)	400 (≈ 1590 µM)	200 (≈ 793 µM)	–	–	–	–	–	–	–
Cc1cc(NC(=O)CSc2nc3ccccc3o2)no1	200 (≈ 691 µM)	200 (≈ 691 µM)	440	220	400 (≈ 1380 µM)	400 (≈ 1380 µM)	200 (≈ 691 µM)	80	tde	tde	Dose-dependent effect	Dose-dependent effect	> 50	70
Cc1cc(NC(=O)CSc2ccccc2)no1	200 (≈ 805 µM)	200 (≈ 805 µM)	–	–	400 (≈ 1610 µM)	400 (≈ 1610 µM)	200 (≈ 805 µM)	–	–	–	–	–	–	–
Cc1cc(NC(=O)CSc2nc3ccccc3s2)no1	200 (≈ 655 µM)	200 (≈ 655 µM)	210	400	400 (≈ 1310 µM)	400 (≈ 1310 µM)	200 (≈ 655 µM)	–	tde	tde	Dose-dependent effect	Dose-dependent effect	–	–
O=C(N[C@H](CO)[C@H](O)c1ccc([N+](=O)[O-])cc1)C(Cl)Cl [CHLORAMPHENICOL]	–	50 (≈ 155 µM)	–	–	100 (≈ 309 µM)	100 (≈ 309 µM)	50 (≈ 155 µM)	–	–	–	–	–	–	–
Cc1cc(NC(=O)CSc2nnnn2C)no1	100 (≈ 393 µM)	100 (≈ 393 µM)	1210	–	400 (≈ 1570 µM)	400 (≈ 1570 µM)	200 (≈ 787 µM)	–	–	–	–	–	–	–
Cc1cc(NC(=O)CSc2nnc(C)s2)no1	100 (≈ 370 µM)	200 (≈ 740 µM)	580	670	400 (≈ 1480 µM)	400 (≈ 1480 µM)	200 (≈ 740 µM)	–	–	–	–	–	–	–
